pIC50: −log10 of the molar value. Activity calls are given as the source filed them. No cut-off for these calls is given here.
How the values were obtained:
MDA-MB-231 [1] = experiment: Induction of HR DNA repair in human MDA-MB-231 cells xenografted in BALB/c nude mouse assessed as decrease in RAD51 level at 50 mg/kg, po for 14 days in presence of 1:1 of compound:Olaparib by Western blot analysis; type: functional, organism-based; settings: time 14.0 day
MDA-MB-231 [2] = experiment: Induction of HR DNA repair in human MDA-MB-231 cells xenografted in BALB/c nude mouse assessed as decrease in FOXM1 level at 50 mg/kg, po for 14 days in presence of 1:1 of compound:Olaparib by H and E staining based IHC analysis; type: functional, organism-based; settings: time 14.0 day
[3] = target: T1, Vascular endothelial growth factor receptor 2 (Homo sapiens, UniProt P35968); settings: MDA-MB-231, dose 25-50 mg/kg, route po, time 14.0 day
T1 sequence (P35968 whole entry): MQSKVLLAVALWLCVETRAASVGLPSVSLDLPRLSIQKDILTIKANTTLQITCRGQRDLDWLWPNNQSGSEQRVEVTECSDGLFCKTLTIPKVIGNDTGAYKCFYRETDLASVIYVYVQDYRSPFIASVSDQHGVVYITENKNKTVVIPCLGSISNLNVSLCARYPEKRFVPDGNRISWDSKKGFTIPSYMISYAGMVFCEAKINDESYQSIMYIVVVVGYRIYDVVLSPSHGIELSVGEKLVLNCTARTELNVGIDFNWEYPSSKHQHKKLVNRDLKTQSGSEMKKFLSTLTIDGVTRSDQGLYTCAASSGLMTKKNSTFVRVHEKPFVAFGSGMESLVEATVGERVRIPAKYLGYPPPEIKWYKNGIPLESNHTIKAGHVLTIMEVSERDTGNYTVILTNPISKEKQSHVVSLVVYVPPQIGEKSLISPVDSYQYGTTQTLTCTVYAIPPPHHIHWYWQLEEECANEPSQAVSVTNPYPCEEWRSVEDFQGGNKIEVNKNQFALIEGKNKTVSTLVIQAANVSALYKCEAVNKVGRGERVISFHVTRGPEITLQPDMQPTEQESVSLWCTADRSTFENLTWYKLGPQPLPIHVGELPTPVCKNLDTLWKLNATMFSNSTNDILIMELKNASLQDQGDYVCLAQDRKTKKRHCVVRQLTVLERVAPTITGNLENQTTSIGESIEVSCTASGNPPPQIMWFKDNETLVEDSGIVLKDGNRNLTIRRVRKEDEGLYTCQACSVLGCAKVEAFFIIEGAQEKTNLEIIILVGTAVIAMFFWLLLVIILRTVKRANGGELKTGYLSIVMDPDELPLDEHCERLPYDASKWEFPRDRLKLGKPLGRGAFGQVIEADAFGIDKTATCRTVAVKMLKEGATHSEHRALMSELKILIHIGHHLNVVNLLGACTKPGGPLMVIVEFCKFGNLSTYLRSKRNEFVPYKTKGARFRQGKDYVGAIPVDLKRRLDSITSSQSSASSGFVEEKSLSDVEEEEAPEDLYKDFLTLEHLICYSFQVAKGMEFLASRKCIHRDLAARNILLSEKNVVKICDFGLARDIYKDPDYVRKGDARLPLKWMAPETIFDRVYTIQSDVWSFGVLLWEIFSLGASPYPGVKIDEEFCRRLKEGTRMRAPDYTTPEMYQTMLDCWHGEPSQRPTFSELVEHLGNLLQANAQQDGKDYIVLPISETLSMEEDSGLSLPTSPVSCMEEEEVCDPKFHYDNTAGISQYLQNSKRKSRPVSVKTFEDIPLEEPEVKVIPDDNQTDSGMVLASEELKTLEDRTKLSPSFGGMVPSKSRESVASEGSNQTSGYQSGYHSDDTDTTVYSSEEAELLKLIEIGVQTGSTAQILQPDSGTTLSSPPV

MDA-MB-231 [4] = experiment: Downregulation of PAR expression in human MDA-MB-231 cells xenografted in BALB/c nude mouse at 25 to 50 mg/kg, po for 14 days in presence of 1:1 of compound:Olaparib by Western blot analysis; type: functional, organism-based; settings: dose 25-50 mg/kg, time 14.0 day
MDA-MB-231 [5] = experiment: Antimigratory activity in human MDA-MB-231 cells xenografted in lungs of BALB/c nude mouse assessed as decrease in MMP2 level in lungs at 50 mg/kg administered once a day measured after 14 days in presence of 1:1 of compound:Olaparib by IHC analysis; type: functional, organism-based; settings: time 14.0 day
MDA-MB-231 [6] = experiment: Antimigratory activity in human MDA-MB-231 cells assessed as upregulation of E-cadherin level at 4 uM incubated for 2 days by immunoblot analysis; type: functional, cell-based; settings: time 2.0 day
MCF7 [7] = experiment: Induction of cell cycle arrest at G2/M phase in human MCF7 cells at 4 uM in presence of 1:1 of compound:Olaparib by Annexin-V-FLUOS staining based flow cytometry; type: functional
MDA-MB-231 [8] = experiment: Induction of HR DNA repair in human MDA-MB-231 cells xenografted in BALB/c nude mouse assessed as decrease in RAD51 level at 50 mg/kg, po for 14 days in presence of 1:1 of compound:Olaparib by H and E staining based IHC analysis; type: functional, organism-based; settings: time 14.0 day
MCF7 [9] = experiment: Antiinvasive activity against human MCF7 cells at 4 uM incubated for 12 hrs in presence of 1:1 of compound:Olaparib by transwell assay; type: functional, cell-based
MDA-MB-231 [10] = experiment: Antimigratory activity in human MDA-MB-231 cells assessed as upregulation of E-cadherin level at 4 uM incubated for 2 days in presence of 1:1 of compound:Olaparib by immunoblot analysis; type: functional, cell-based; settings: time 2.0 day
MDA-MB-231 [11] = experiment: Antimigratory activity in human MDA-MB-231 cells assessed as downregulation of MMP-2 level at 4 uM incubated for 2 days in presence of 1:1 of compound:Olaparib by immunoblot analysis; type: functional, cell-based; settings: time 2.0 day
MCF7 [12] = experiment: Induction of cell cycle arrest at S phase in human MCF7 cells at 4 uM by Annexin-V-FLUOS staining based flow cytometry; type: functional
MCF7 [13] = experiment: Antimigratory activity in human MCF7 cells assessed as downregulation of MMP-2 level at 4 uM in presence of 1:1 of compound:Olaparib by DAPI staining based immunofluorescence analysis; type: functional, cell-based
MDA-MB-231 [14] = experiment: Downregulation of Olaparib-induced PAR expression in human MDA-MB-231 cells at 4 uM incubated for 2 days by Western blot analysis; type: functional, cell-based; settings: time 2.0 day
MCF7 [15] = experiment: Induction of apoptosis in human MCF7 cells assessed as decrease in Bcl-2 level at 4 uM incubated for 2 days in presence of 1:1 of compound:Olaparib by immunoblot analysis; type: functional, cell-based; settings: time 2.0 day
MDA-MB-231 [16] = experiment: Antimigratory activity in human MDA-MB-231 cells assessed as downregulation of MMP-2 level at 4 uM by DAPI staining based immunofluorescence analysis; type: functional, cell-based
[17] = target: T1, Vascular endothelial growth factor receptor 2; settings: MDA-MB-231, dose 50.0 mg/kg, route po, time 14.0 day
MCF7 [18] = experiment: Antimigratory activity against human MCF7 cells at 4 uM incubated for 1 hr in presence of 1:1 of compound:Olaparib by wound healing assay; type: functional, cell-based
MDA-MB-231 [19] = experiment: Induction of DNA damage in human MDA-MB-231 cells assessed as increase in comet tail length at 4 uM in presence 1:1 of Olaparib by alkaline comet assay; type: functional, cell-based
HCC1937 = experiment: cells; settings: Homo sapiens
MCF7 [20] = experiment: Antimigratory activity in human MCF7 cells assessed as upregulation of E-cadherin level at 4 uM incubated for 2 days in presence of 1:1 of compound:Olaparib by immunoblot analysis; type: functional, cell-based; settings: time 2.0 day
MDA-MB-231 [21] = experiment: Induction of apoptosis in human MDA-MB-231 cells assessed as decrease in Bcl-2 level at 4 uM incubated for 2 days in presence of 1:1 of compound:Olaparib by immunoblot analysis; type: functional, cell-based; settings: time 2.0 day
MCF7 [22] = experiment: Induction of HR DNA repair in human MCF7 cells assessed as decrease in RAD51 level at 4 uM incubated for 48 hrs in presence of 1:1 of compound:Olaparib by DAPI staining based immunofluorescence analysis; type: functional, cell-based
MCF7 [23] = experiment: Antimigratory activity in human MCF7 cells assessed as upregulation of E-cadherin level at 4 uM by DAPI staining based immunofluorescence analysis; type: functional, cell-based
MDA-MB-231 [24] = experiment: Induction of cell cycle arrest at S phase in human MDA-MB-231 cells at 4 uM by Annexin-V-FLUOS staining based flow cytometry; type: functional
MCF7 [25] = experiment: Induction of cell cycle arrest at G2/M phase in human MCF7 cells at 4 uM by Annexin-V-FLUOS staining based flow cytometry; type: functional
MCF7 [26] = experiment: Antiproliferative activity against human MCF7 cells assessed as cell growth inhibition
MDA-MB-231 [27] = experiment: Induction of HR DNA repair in human MDA-MB-231 cells xenografted in BALB/c nude mouse assessed as decrease in FOXM1 level at 50 mg/kg, po for 14 days in presence of 1:1 of compound:Olaparib by Western blot analysis; type: functional, organism-based; settings: time 14.0 day
MDA-MB-231 [28] = experiment: cells; settings: Homo sapiens
MCF7 [29] = experiment: cells; settings: Homo sapiens
MDA-MB-231 [30] = experiment: Induction of HR DNA repair in human MDA-MB-231 cells assessed as decrease in RAD51 level at 4 uM incubated for 48 hrs by DAPI staining based immunofluorescence analysis; type: functional, cell-based
MDA-MB-231 [31] = experiment: Antimetastatic activity against human MDA-MB-231 cells xenografted in lungs of BALB/c nude mouse assessed as decrease in lung metastatic nodules at 50 mg/kg administered once a day measured after 14 days in presence of 1:1 of compound:Olaparib; type: functional, organism-based; settings: time 14.0 day
MCF7 [32] = experiment: Antimigratory activity in human MCF7 cells assessed as upregulation of E-cadherin level at 4 uM in presence of 1:1 of compound:Olaparib by DAPI staining based immunofluorescence analysis; type: functional, cell-based
MDA-MB-231 [33] = experiment: Induction of apoptosis in human MDA-MB-231 cells assessed as increase in Bax level at 4 uM incubated for 2 days in presence of 1:1 of compound:Olaparib by immunoblot analysis; type: functional, cell-based; settings: time 2.0 day
MDA-MB-436 = experiment: Antiproliferative activity against human MDA-MB-436 cells assessed as cell growth inhibition

inhibition [3]: Active
inhibition [17]: Active
pIC50 (HCC1937): < 5.00
pIC50 (MCF7 [26]): < 5.00
pIC50 (MDA-MB-231 [28]): < 5.00
pIC50 (MCF7 [29]): < 5.00
pIC50 (MDA-MB-436): < 5.00
Structure (SMILES): Cc1ccc(Nc2nccc(N(C)c3ccc4c(C)n(C)nc4c3)n2)cc1S(N)(=O)=O [PAZOPANIB]
Activity (MDA-MB-231 [1]): Active
Activity (MDA-MB-231 [2]): Active
Activity (MDA-MB-231 [4]): Active
Activity (MDA-MB-231 [5]): Active
Activity (MDA-MB-231 [6]): Active
Activity (MCF7 [7]): Active
Activity (MDA-MB-231 [8]): Active
Activity (MCF7 [9]): Active
Activity (MDA-MB-231 [10]): Active
Activity (MDA-MB-231 [11]): Active
Activity (MCF7 [12]): Active
Activity (MCF7 [13]): Active
Activity (MDA-MB-231 [14]): inactive
Activity (MCF7 [15]): Active
Activity (MDA-MB-231 [16]): Active
Activity (MCF7 [18]): Active
Activity (MDA-MB-231 [19]): Active
Activity (MCF7 [20]): Active
Activity (MDA-MB-231 [21]): Active
Activity (MCF7 [22]): Active
Activity (MCF7 [23]): Active
Activity (MDA-MB-231 [24]): Active
Activity (MCF7 [25]): Active
Activity (MDA-MB-231 [27]): Active
Activity (MDA-MB-231 [30]): Active
Activity (MDA-MB-231 [31]): Active
Activity (MCF7 [32]): Active
Activity (MDA-MB-231 [33]): Active
